The values below are quoted from earlier work in US7166608B2, “N-aroyl piperazine derivatives as orexin receptor antagonists” (SmithKline Beecham p.l.c., priority 2001, dated 2007).

For one series, the system named is freely-feeding rats. The conditions noted are these: central administration, 4 hour time period.
The subject of the next series is rat sleep/EEG. The note with it: central administration at the onset of the normal sleep period.

“orexin-A: peptide ligand (agonist) of the orexin receptors; human sequence given in the 1st table (EPLPDCCRQKTCSCRLYELLHGAGNHAAGILTLNH; Human orexin A)”: the “increase in food intake over control rats receiving vehicle” value in the series with freely-feeding rats is “approximately four-fold”. In the series with rat sleep/EEG, the “effect on arousal and sleep” value is on record as “dose-related increase in arousal”.
